Reference: the supplement of paper PMC10307832

What was measured:
Test in all cases: relative viability (nuclei count vs DMSO), 5 days (fraction); higher = more cells survive
Adavosertib + Linsitinib = compound: C=CCn1c(=O)c2cnc(Nc3ccc(N4CCN(C)CC4)cc3)nc2n1-c1cccc(C(C)(C)O)n1 [Adavosertib] + C[C@]1(O)C[C@@H](c2nc(-c3ccc4ccc(-c5ccccc5)nc4c3)c3c(N)nccn32)C1 [Linsitinib] (partner 1 µM)
How it was run: (§1)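 Lung cancer cell lines, seeded in 1536-well plates, were treated the following day by pin tool with a single drug or with five library-drug doses (not always all listed) in √10 steps on top of a fixed anchor-drug dose. Cells were fixed and nuclei stained in one step after 5 days, and nuclei were counted. Relative viability is the nuclei count for treated wells divided by that for vehicle wells, reported as medians of duplicate plates.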

Adavosertib + OSI-027 = compound: C=CCn1c(=O)c2cnc(Nc3ccc(N4CCN(C)CC4)cc3)nc2n1-c1cccc(C(C)(C)O)n1 [Adavosertib] + COc1cccc2cc(-c3nc([C@H]4CC[C@H](C(=O)O)CC4)n4ncnc(N)c34)[nH]c12 [OSI-027] (partner 0.5 µM)
How it was run: as §1

Adavosertib + Pictilisib = compound: C=CCn1c(=O)c2cnc(Nc3ccc(N4CCN(C)CC4)cc3)nc2n1-c1cccc(C(C)(C)O)n1 [Adavosertib] + CS(=O)(=O)N1CCN(Cc2cc3nc(-c4cccc5[nH]ncc45)nc(N4CCOCC4)c3s2)CC1 [Pictilisib] (partner 1 µM)
How it was run: as §1

Adavosertib + Crizotinib = compound: C=CCn1c(=O)c2cnc(Nc3ccc(N4CCN(C)CC4)cc3)nc2n1-c1cccc(C(C)(C)O)n1 [Adavosertib] + C[C@@H](Oc1cc(-c2cnn(C3CCNCC3)c2)cnc1N)c1c(Cl)ccc(F)c1Cl [Crizotinib] (partner 1 µM)
How it was run: as §1

Adavosertib + Tozasertib = compound: C=CCn1c(=O)c2cnc(Nc3ccc(N4CCN(C)CC4)cc3)nc2n1-c1cccc(C(C)(C)O)n1 [Adavosertib] + Cc1cc(Nc2cc(N3CCN(C)CC3)nc(Sc3ccc(NC(=O)C4CC4)cc3)n2)n[nH]1 [Tozasertib] (partner 0.1 µM)
How it was run: as §1

Cell Line	relative viability (Adavosertib + Linsitinib; first compound 0.01 µM)	relative viability (Adavosertib + Linsitinib; first compound 0.03162 µM)	relative viability (Adavosertib + Linsitinib; first compound 0.1 µM)	relative viability (Adavosertib + Linsitinib; first compound 0.3162 µM)	relative viability (Adavosertib + OSI-027; first compound 0.01 µM)	relative viability (Adavosertib + OSI-027; first compound 0.03162 µM)	relative viability (Adavosertib + OSI-027; first compound 0.1 µM)	relative viability (Adavosertib + OSI-027; first compound 0.3162 µM)	relative viability (Adavosertib + Pictilisib; first compound 0.01 µM)	relative viability (Adavosertib + Pictilisib; first compound 0.03162 µM)	relative viability (Adavosertib + Pictilisib; first compound 0.1 µM)	relative viability (Adavosertib + Pictilisib; first compound 0.3162 µM)	relative viability (Adavosertib + Crizotinib; first compound 0.01 µM)	relative viability (Adavosertib + Crizotinib; first compound 0.03162 µM)	relative viability (Adavosertib + Crizotinib; first compound 0.1 µM)	relative viability (Adavosertib + Crizotinib; first compound 0.3162 µM)	relative viability (Adavosertib + Tozasertib; first compound 0.01 µM)	relative viability (Adavosertib + Tozasertib; first compound 0.03162 µM)	relative viability (Adavosertib + Tozasertib; first compound 0.1 µM)	relative viability (Adavosertib + Tozasertib; first compound 0.3162 µM)
NCI-H2228	0.629	0.623	0.76	0.395	0.509	0.651	0.618	0.142	0.695	0.45	0.448	0.305	0.391	0.458	0.615	0.3	0.276	0.277	0.249	0.204
NCI-H650	0.785	0.926	0.87	0.712	0.476	0.606	0.526	0.446	0.926	1.04	1.05	0.805	0.706	0.648	0.692	0.609	0.75	0.774	0.806	0.757
NCI-H1651	1.03	1.02	0.98	0.783	0.577	0.571	0.781	0.539	0.497	0.491	0.565	0.42	0.836	0.882	0.897	0.899	0.7	0.702	0.832	0.668
NCI-H1993	0.769	0.793	0.797	0.749	0.559	0.537	0.638	0.573	0.858	0.818	0.932	0.719	0.919	0.804	0.874	0.95	0.633	0.598	0.658	0.666
HCC-827	0.985	0.974	1.03	0.991	0.779	0.832	0.738	0.724	0.985	1.05	1.08	0.937	0.895	0.943	1.03	0.929	0.402	0.415	0.46	0.437
SW 1573	0.919	0.864	0.911	0.886	0.645	0.626	0.882	0.278	0.482	0.525	0.58	0.343	0.797	0.879	1.09	0.845	0.221	0.234	0.192	0.17
NCI-H1944	1.17	1.13	1.23	1	0.378	0.429	0.394	0.402	0.387	0.333	0.333	0.326	1.14	1.11	1.17	1.13	0.227	0.241	0.23	0.269
COR-L 105	0.818	1.13	0.976	0.906	0.598	0.677	0.558	0.503	0.415	0.384	0.356	0.393	0.746	0.836	0.795	0.747	0.353	0.374	0.385	0.319
BEN	0.97	0.886	0.921	1.06	0.293	0.333	0.297	0.273	0.575	0.682	0.587	0.558	0.985	0.998	0.825	0.873	0.598	0.474	0.494	0.629
HARA	0.907	1.06	0.98	0.97	0.485	0.486	0.591	0.368	0.409	0.461	0.374	0.269	1	1.06	1.04	0.354	0.125	0.128	0.111	0.0667
NCI-H1437	1.08	1.11	1.12	1.09	0.931	0.868	0.973	0.788	0.371	0.435	0.401	0.404	1	0.973	1.04	0.922	0.415	0.389	0.433	0.421
HCC-44	0.628	0.659	0.683	0.794	0.525	0.484	0.538	0.578	0.518	0.647	0.526	0.62	0.827	0.856	0.946	0.949	1.02	0.951	1.24	1.15
COR-L23	0.965	0.904	0.745	0.209	0.858	0.745	0.717	0.349	0.665	0.636	0.722	0.266	0.69	0.731	0.797	0.304	0.24	0.236	0.23	0.162
201T	1.04	0.957	0.941	1.08	0.667	0.734	0.669	0.666	0.668	0.683	0.625	0.654	1.05	0.992	1.08	1.07	0.91	0.999	1.01	0.979
NCI-H23	0.53	0.612	0.444	0.29	0.604	0.631	0.553	0.327	0.504	0.51	0.49	0.236	0.532	0.558	0.517	0.432	0.326	0.321	0.283	0.192
